# Patent publication US20080161223A1, “Spirobornyl-2,4-(1,3-Dioxanes)] And Their Uses As Fragrance Ingredients” (GIVAUDAN SA, priority 2005, published 2008)
# Tested on: panel of trained evaluators
# Experiment: Determination of GC-odour threshold concentration
# Details: gas chromatograph with sniff port; racemic mixture of compounds; group of 4 panelists; identical conditions
# Experimental: Determination of GC-odour threshold concentration
# According to standard procedures known to the person skilled in the art, threshold concentrations for volatile perfumery compounds are determined on a gas chromatograph equipped with a sniff port by a panel of trained evaluators. The lowest concentration smelled by each panellist is recorded as the individual threshold concentration expressed in ng (absolute amount of compound delivered at the sniff port).
# Under identical conditions the odour threshold concentration for racemic mixture of compounds A, B and C respectively was measured and compared by a group of 4 panelists.
row,SMILES,odour threshold concentration geometric mean [ng]
1,CC1OCCC2(CC3CCC2(C)C3(C)C)O1 (racemic) [A],22
2,CC1CC2(CC3CCC2(C)C3(C)C)OC(C)O1 (racemic) [B],68
3,CC1OCC(C)C2(CC3CCC2(C)C3(C)C)O1 (stereo not drawn) [C],3

# Tested on: not listed separately
# Experiment: Relative odour threshold of constituents compared to the whole stereoisomer mixture
# Details: ratio rac-1b: rac-1d: 1f
# From the text: b) A 6:2:1 racemic mixture If of diastereomers of (1R*,2S*,2′S*,4R*,5′R*)-, (1R*,2S*,2′S*,4R*,5′S*)- and (1R*,2S*,2′R*,4R*,5′S*)-1,2′,5′,7,7-pentamethylspiro[bicyclo[2.2.1]heptane-2,4′-[1,3]dioxane] was obtained in 38% overall yield following the experimental procedure of Example 1c, starting from the diol mixture 2d obtained from rac-camphor via 2-(1-methylallyl)-1,7,7-trimethylbicyclo[2.2.1]heptan-2-ol (5a), applying the methodology of Kostova et al (Helv. Chim. Acta 1999, 82, 1385), i.e. route III. The epimeric intermediate enols and diols were not separated. (1R*,2S*,2′S*,4R*,5′S*)- and (1R*,2S*,2′S*,4R*,5′R*)- enatiomeric pairs are the strongest constituents of the mixture. Their relative odour threshold, compared to the whole stereoisomer mixture, were 1:50:4 (rac-1b: rac-1d: 1f).
row,SMILES,relative odour threshold
1,"CC1OCC(C)C2(CC3CCC2(C)C3(C)C)O1 (racemic) [Compound 1f, (1RS,2SR,2′RS/SR,4RS,5′RS/SR)-1,2′,5′,7,7-Pentamethylspiro[bicyclo[2.2.1]heptane-2,4′-[1,3]dioxane]]",4
2,CC1OCC(C)C2(CC3CCC2(C)C3(C)C)O1 (racemic) [rac-1b],1
3,CC1OCC(C)C2(CC3CCC2(C)C3(C)C)O1 (racemic) [rac-1d],50

# Tested on: not listed separately
# Experiment: Odour description (olfactory evaluation of the compound)
# Details: stated within the odour description
row,SMILES,Odour strength compared to another compound
1,"C[C@@H]1OC[C@H](C)[C@]2(C[C@H]3CC[C@]2(C)C3(C)C)O1 (single isomer, unassigned) [Compound 1c]",weaker than 1b
2,"CC[C@@H]1OC[C@H](C)[C@]2(C[C@H]3CC[C@]2(C)C3(C)C)O1 [Compound 1h, (1R,2S,2′R,4R,5′S)-2′-Ethyl-1,5′,7,7-tetramethylspiro[bicyclo[2.2.1]heptane-2,4′-[1,3]dioxane]]",weaker than compound 1g
3,"CC(C)[C@@H]1OC[C@H](C)[C@]2(C[C@H]3CC[C@]2(C)C3(C)C)O1 [Compound 1j, (1R,2S,2′R,4R,5′S)-2′-Isopropyl-1,5′,7,7-tetramethylspiro[bicyclo[2.2.1]heptane-2,4′-[1,3]dioxane]]",weaker than compound 1i
